Results published in US20230250417A1, “METHODS FOR DETECTING RNA TRANSLATION” (Eclipse Bioinnovations, Inc., priority 2021, published 2023).
Entries after “also recorded” stand apart in the source; their conditions may differ.

Assays:
[1] = test system: non-TOP motif containing gene, PARP1; assay: Ribo-ABC (oligo conjugated antibody) ribosome-bound RNA read counts, genome track view; type: cell-based; conditions: ribosomal proteins RPS2, RPS3, RPS14, FIG. 2 bottom panel
Procedure: (§1) Three different ribosomal proteins were used RPS2, RPS3, RPS14.
(§2) This example provides a protocol for a Ribo-ABC experiment according to an embodiment of the disclosure.
(§3) First, the tissue culture plate was placed on leveled ice or on a cooling block pre-chilled to 4° C. Second, the above (plate plus ice or cooling block) was placed into the UV cross-linker. Third, the tissue culture plate lid was removed for cross-linking. Fourth, cross-link at 254-nm UV with an energy setting of 400 mJoules/cm^2. Fifth, while keeping the cells on ice, a cell scraper (Corning, cat. #CLS3010-10EA) was used to scrape the plate. Sixth, the cells were transferred to a 15 mL conical tube. Seventh, the plate was washed once with 5 mL of chilled PBS and added to the same 15 mL tube. Eight, gently resuspended until the sample was homogeneous. Ninth, the 15 mL conical tube was centrifuged at 200×g for 3 minutes at 4° C. Tenth, the sample was aspirated and discarded supernatant. Eleventh, the desired amount of cells for flash freezing was resuspended in chilled PBS (typically 10×10^6 cells per mL). Twelfth, the sample was transferred into 1.5 mL LoBind tubes Tubes (typically 1 mL of 10×10^6 cells per mL). Thirteenth, the sample was spun down at 200×g for 3 minutes at 4° C. Fourteenth, the supernatant was aspirated, and the cell pellets were frozen quickly by submerging the 1.5 mL LoBind tubes in liquid nitrogen. […]

[2] = test system: TOP motif containing gene, GAPDH; assay: as above; type: cell-based; conditions: ribosomal proteins RPS2, RPS3, RPS14, FIG. 2 top panel
Procedure: as §1, §2, §3

[3] = test system: gene FUS; assay: Bead barcoded multiplexed RBP/RPS2 binding, genome track view (IGV) with normalized read counts; type: cell-based, human; conditions: cells treated with 200 nM Risdiplam for 2 hours vs DMSO control; FIG. 7
Procedure: FIG. 7 depicts an IGV screenshot of the gene FUS with normalized read counts for 7 different RBPs and the translation component protein RPS2. Two conditions are shown; one DMSO control and the other cells treated with 200 nM Risdiplam. […] This example illustrates a protocol for a bead barcoded experiment for detecting RNA modifications from cells with RBPs according to an embodiment of the disclosure. The buffers described below are the same as mentioned above with respect to Example 2 unless explicitly stated otherwise. First, Trypan blue stain (Thermo Fisher Scientific, cat. #15250061) or equivalent live cell counting assay was used to valuate cell viability. Next, cell viability was reviewed to be sure it was >95% to ensure intact RNA. Cells were grown to a proper confluence, in most cases grow cells to 75% confluence. Some cells were treated with 200 nM Risdiplam for 2 hours prior to harvesting. First, resuspend anti-rabbit Dynabeads by vortexing or pipetting up and down several times. Second, transfer 500 μL of beads (enough for 20 samples) into a 1.5 mL Eppendorf tube and place tube on DynaMag-2. Third, Remove the supernatant and wash beads thrice with 500 μL PBS, resuspending beads with each wash. Fourth, remove beads from magnet, resuspend beads in 500 μL PBS, add 1.65 μL DBCO-NHS (10 mM in DMSO), and rotate tube at room temperature for 1 hour. […]

Compound	change in read counts of PARP1 upon Torin treatment [1]	change in read counts of GAPDH upon Torin treatment [2]	change in binding on gene FUS (7 RBPs and RPS2) versus DMSO control [3]
Torin	no change in read counts	reduced read counts	–
Cc1cn2nc(-c3cc(=O)n4cc(N5CCNC6(CC6)C5)ccc4n3)cc(C)c2n1 [Risdiplam]	–	–	a change in binding across the two conditions; also recorded: a difference observed between the two conditions
